Measured values taken from the supplement of paper PMC11451515.

Tests used:
Experiment in all cases: AUC of viability dose-response curve (% viability x log10 dose units); higher = less sensitive
Settings in all cases: 48 h
NOMO1 = tested on: NOMO1
Procedure, shortened: (§1)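 Leukemia cells adapted to each medium were seeded at 500 or 1000 cells/well in 1536-well plates and dosed with library compounds in DMSO at 11 threefold doses from 47 μM to 0.79 nM for 48 h at 37°C. CellTiter-Glo One luminescence was normalised per plate to DMSO and cell-free wells, then fitted with a four-parameter log-logistic model over log10 doses. Area under the curve was taken from this fit by the trapezoidal rule, with curves above full viability scaled and curves failing quality control removed.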

SEM cells = tested on: SEM cells
Procedure, shortened: as §1

P12-Ichikawa = tested on: P12-Ichikawa
Procedure, shortened: as §1

[1] = RPMI 5 mM glucose + 10% dialyzed FBS

Row | SMILES | AUC of viability dose-response curve (NOMO1; HPLM + 10% dialyzed FBS) | AUC of viability dose-response curve (NOMO1; RPMI 5 mM glucose + 10% FBS) | AUC of viability dose-response curve (NOMO1; [1]) | AUC of viability dose-response curve (SEM cells; HPLM + 10% dialyzed FBS) | AUC of viability dose-response curve (SEM cells; RPMI 5 mM glucose + 10% FBS) | AUC of viability dose-response curve (SEM cells; [1]) | AUC of viability dose-response curve (P12-Ichikawa; HPLM + 10% dialyzed FBS) | AUC of viability dose-response curve (P12-Ichikawa; RPMI 5 mM glucose + 10% FBS) | AUC of viability dose-response curve (P12-Ichikawa; [1])
1 | C[C@]12CCC(=O)C=C1CC[C@@H]1[C@@H]2[C@@H](O)C[C@@]2(C)[C@H]1CC[C@]2(O)C(=O)CO | 474 | 456 | 458 | 466 | 427 | 443 | 447 | 425 | 412
2 | O=C(O)Cn1nnc(-c2cc(N3CCC(Oc4cc(F)ccc4Br)CC3)no2)n1 | 357 | 340 | 361 | 422 | 464 | 459 | 413 | 415 | 428
3 | CC[C@]12CC[C@H]3[C@@H](CCC/4=C/C(=O)CC[C@H]34)[C@@H]1\C=C/[C@@]2(O)C#C | 461 | 451 | 450 | 446 | 465 | 464 | 473 | 473 | 470
4 | COc1ccc([S+](=O)([O-])N(C(C)=O)c2ccccc2/C=C/c2cc[n+]([O-])cc2)cc1 | 351 | 352 | 356 | 352 | 342 | 351 | 353 | 345 | 370
5 | Cc1cnn(C)c1C(=O)Nc1cc(Nc2ccc3c(/C=C/c4ccccn4)n[nH]c3c2)ccc1F | 422 | 460 | 454 | 343 | 311 | 330 | 424 | 449 | 441
6 | CN1CCN(C2=Nc3cc(Cl)ccc3Nc3ccccc32)CC1 | 463 | 471 | 470 | 459 | 428 | 452 | 477 | 472 | 471
7 | CCC[S+]([O-])c1ccc2[nH]c(NC(=O)OC)nc2c1 (stereo unspecified) | 429 | 420 | 384 | 409 | 399 | 411 | 409 | 393 | 405
8 | CNCC(O)c1ccc(O)cc1 (stereo unspecified) | 446 | 455 | 441 | 423 | 452 | 459 | 464 | 466 | 469
9 | CN[C@@H](C)[C@H]1[C@H](O)C[C@@]2(C)[C@@H]3CC[C@H]4C(C)(C)[C@@H](NC)CC[C@@]45C[C@@]35CC[C@]12C | 445 | 454 | 445 | 376 | 392 | 399 | 464 | 450 | 425
10 | Cc1onc(-c2ccccc2Cl)c1C(=O)N[C@@H]1C(=O)N2[C@@H]1SC(C)(C)[C@@H]2C(=O)[O-] | 455 | 437 | 424 | 402 | 435 | 464 | 469 | 451 | 456
11 | CC(C)(C)NC(=O)Nc1cccc(Nc2ncc(F)c(NC(C)(C)CO)n2)c1 | 477 | 450 | 459 | 415 | 396 | 397 | 415 | 425 | 429
12 | CCN(CC)CCCCNc1ncc2cc(-c3cc(OC)cc(OC)c3)c(NC(=O)NC(C)(C)C)nc2n1 | 388 | 459 | 444 | 400 | 393 | 391 | 449 | 406 | 404
13 | Clc1ccc(-c2nc3sccn3c2/C=N/OCc2ccc(Cl)c(Cl)c2)cc1 | 445 | 451 | 461 | 453 | 430 | 455 | 448 | 463 | 454
14 | CCOC(=O)[C@@H](N)Cc1ccc(-c2cc(O[C@H](c3ccc(Cl)cc3-n3ccc(C)n3)C(F)(F)F)nc(N)n2)cc1.O=C(O)CNC(=O)c1ccccc1 | 449 | 448 | 447 | 462 | 457 | 458 | 466 | 453 | 460
15 | C[C@@]12C(=O)OC(=O)[C@@]1(C)C1CCC2O1 | 391 | 371 | 392 | 400 | 392 | 377 | 407 | 405 | 407
16 | Cn1cnc2c(F)c(Nc3ccc(Br)cc3F)c(C(=O)NOCCO)cc21 | – | – | – | 392 | 382 | 363 | – | – | –
17 | OC[C@@H](O)[C@@H](O)[C@H](O)[C@@H](O)CO | 465 | 472 | 445 | 401 | 472 | 452 | 452 | 453 | 449
18 | CNC(=O)c1ccc2cc(C3(O)CCn4cncc43)ccc2c1 (stereo unspecified) | 458 | 456 | 456 | 441 | 450 | 452 | 453 | 469 | 453
19 | CN(C)[S+](=O)([O-])c1ccc2c(c1)C(=Cc1cc3c([nH]1)CCCC3)C(=O)N2 | 467 | 453 | 455 | 462 | 462 | 459 | 467 | 464 | 468

Row | SMILES | AUC of viability dose-response curve (NOMO1; HPLM + 10% dialyzed FBS) | AUC of viability dose-response curve (NOMO1; RPMI 5 mM glucose + 10% FBS) | AUC of viability dose-response curve (NOMO1; [1]) | AUC of viability dose-response curve (SEM cells; HPLM + 10% dialyzed FBS) | AUC of viability dose-response curve (SEM cells; RPMI 5 mM glucose + 10% FBS) | AUC of viability dose-response curve (SEM cells; [1]) | AUC of viability dose-response curve (P12-Ichikawa; HPLM + 10% dialyzed FBS) | AUC of viability dose-response curve (P12-Ichikawa; RPMI 5 mM glucose + 10% FBS) | AUC of viability dose-response curve (P12-Ichikawa; [1])
20 | C[C@H]1C[C@@H]2[C@H](CC[C@@]3(C)[C@H]2CC[C@]3(OC(C)=O)C(C)=O)[C@@]\4(C)CCC(=O)\C=C14 | 471 | 472 | 458 | 417 | 433 | 425 | 464 | 446 | 442
21 | Cc1nn(Cc2ccccc2Cl)c(C)c1CN(C)CC(O)COc1ccc(Cl)cc1 (stereo unspecified) | 445 | 428 | 436 | 436 | 432 | 430 | 463 | 440 | 435
22 | C[C@](O)(CS(=O)(=O)c1ccc(F)cc1)C(=O)Nc1ccc(C#N)c(C(F)(F)F)c1 | 443 | 460 | 470 | 461 | 433 | 444 | 472 | 463 | 470
23 | Cc1ccccc1C(=O)c1ccc(Nc2ccc(Br)cc2N)cc1Cl | 467 | 466 | 455 | – | – | – | 454 | 461 | 441
24 | CC(C)OC(=O)/C1=C/N(CC(C)(C)C2=C1[NH]C3=CC=CC=C23)C(=O)C4=CC=C(F)C(=C4)F | 424 | 384 | 351 | 342 | 364 | 394 | – | – | –
25 | S=C(NCc1ccc2c(c1)OCO2)N1CCN(c2ncnc3c2oc2ccccc23)CC1 | 416 | 438 | 445 | – | – | – | 406 | 387 | 389
26 | COc1ccccc1OCC(O)COC(N)=O (stereo unspecified) | – | – | – | 467 | 465 | 459 | 466 | 461 | 461
27 | O=C1[C@H](Cc2ccc(O)cc2)N2C(=O)CCN(C(=O)NCc3ccccc3)[C@H]2CN1Cc1cccc2ccccc12 | – | – | – | 334 | 384 | 363 | 404 | 375 | 361
28 | FC1=CC=C(C=C1)N2/C=C\C=C(C(=O)NC3=CC=C(OC4=C5C=C[NH]C5=NC=C4)C(=C3)F)/C2=O | 445 | 456 | 459 | – | – | – | 465 | 459 | 466
29 | NC\1=N\C(=O)N(\C=C1)[C@@H]2O[C@H](CO)[C@@H](O)[C@@H]2O | 186 | 201 | 154 | – | – | – | 38 | 25.6 | 39.2
30 | CC(C)(C#N)c1cc(Cn2cncn2)cc(C(C)(C)C#N)c1 | – | – | – | – | – | – | 466 | 456 | 442
31 | COc1ccc(-c2ccc3ncc4c(c3c2)n(-c2ccc(N3CCNCC3)c(C(F)(F)F)c2)c(=O)n4C)cn1 | 209 | 255 | 218 | – | – | – | – | – | –
32 | Cc1nc2cnc3ccc(C#Cc4cccnc4)cc3c2n1-c1ccc(C(C)(C)C#N)cc1 | 264 | 259 | 268 | – | – | – | 314 | 251 | 255
33 | CC(C)c1nc(CN(C)C(=O)N[C@H](C(=O)N[C@@H](Cc2ccccc2)C[C@H](O)[C@H](Cc2ccccc2)NC(=O)OCc2cncs2)C(C)C)cs1 | – | – | – | 410 | 429 | 427 | 425 | 411 | 396
34 | COCC1(CO)C(=O)C2CCN1CC2 (stereo unspecified) | 435 | 446 | 462 | – | – | – | 413 | 414 | 421
35 | CC(C)c1noc(N2CCC(COc3ccc(-c4ccc([S+](C)(=O)[O-])cc4)nc3)CC2)n1 | 467 | 459 | 463 | – | – | – | 454 | 453 | 452
36 | N#CCNC(=O)c1ccc(-c2ccnc(Nc3ccc(N4CCOCC4)cc3)n2)cc1 | – | – | – | 405 | 412 | 394 | 447 | 442 | 434
37 | O=C(Nc1cccc(C(F)(F)F)c1)Nc1cc([S+](=O)([O-])NC2CC2)ccc1-c1ccsc1 | – | – | – | 466 | 399 | 454 | 466 | 465 | 460
